This is an account of results in patent US7854753B2, “Photokinetic delivery of biologically active substances using pulsed incoherent light” (Photokinetix, Inc., priority 2002, dated 2010).

The nature of the data set: Franz skin diffusion cell permeation (percutaneous absorption) under ambient, natural or pulsed incoherent LED light. The conditions noted are these: for Permeation Dark: ambient light absent; for Permeation Ctrl: ambient cool fluorescent light only, 260-750 nm, 120 cps; for Permeation Ctrl-TiO2: ambient fluorescent light, sample with 2% (w/w) rutile TiO2; for Ctrl: ambient light only; for Ctrl-TiO2: ambient light, 2% TiO2; for Ctrl-TiO2/1.7 / Ctrl-TiO2/9.7 / Ctrl-TiO2/24: Table 7, 350 nm series; for Ctrl-TiO2/1.7: 2% TiO2, 1.7 cps; for Ctrl-TiO2/9.7: 2% TiO2, 9.7 cps; for Ctrl-TiO2/24: 2% TiO2, 24 cps; for 350/1.7 / 350/9.7 / 350/24: Table 7.

SMILES strings stand for the structures.

As for `Cn1c(=O)c2c(ncn2CC(=O)O)n(C)c1=O` [Compound 1, Theophylline-7 acetic acid], the “Permeation Ctrl” value was 0.00 μg/0.64 cm^2/25 hrs and the “Permeation Ctrl-TiO2” value worked out at 0.00 μg/0.64 cm^2/25 hrs. The “Permeation Dark” value (Dark control) is 0.00 μg/0.64 cm^2/25 hrs.
Molecule `O=C1O[C@H]([C@@H](O)CO)C([O-])=C1OP(=O)([O-])[O-].[Na+].[Na+].[Na+]` [Compound 2, Sodium ascorbyl phosphate] returned a Ctrl-TiO2/1.7 of 42.75, a Ctrl-TiO2/9.7 of 6.48 and a Ctrl-TiO2/24 of 0.00. Also, under “Table 7 (350 nm series)”, the Ctrl is reported as 0.00 and the Ctrl-TiO2 amounted to 0.00. The molecule further had a 350/1.7 (350 nm, 1.7 cps) of 3.33. In addition, the 350/9.7 (350 nm, 9.7 cps) is 0.00. The molecule further displayed a 350/24 (350 nm, 24 cps) of 0.00.
For the setting “Table 7 (350 nm series)”, `O=C1O[C@H]([C@@H](O)CO)C(O)=C1O` [Compound 3, Ascorbic Acid] gave a Ctrl of 147.49 and a Ctrl-TiO2 of 67.01. Moreover, for the setting “Table 8 (405 nm series)”, the Ctrl came to 557.96 and the Ctrl-TiO2 stood at 127.25.
The molecule `CCCCCCCCCCCCCCCC(=O)OC[C@H](O)[C@H]1OC(=O)C(O)=C1O` [Compound 4, Ascorbyl palmitate] came in with a Ctrl-TiO2/1.7 of 289.57, a Ctrl-TiO2/9.7 of 312.06 and a Ctrl-TiO2/24 of 180.88. Further, the “Permeation Dark” value (Dark control) was found to be 0.00 μg/0.64 cm^2/25 hrs. Under “Table 7 (350 nm series)”, this molecule registered a Ctrl of 263.48 and a Ctrl-TiO2 of 260.00. This molecule returned a 350/1.7 (350 nm, 1.7 cps) of 160.87. In addition, the 350/9.7 (350 nm, 9.7 cps) worked out at 0.00. For the same molecule, the 350/24 (350 nm, 24 cps) is 151.00.
As for `Cn1c(=O)c2c(ncn2C)n(C)c1=O` [Compound 9, Caffeine], the “Permeation Ctrl” value amounted to 168.70 μg/0.64 cm^2/25 hrs and the “Permeation Ctrl-TiO2” value came out at 47.22 μg/0.64 cm^2/25 hrs. Also, the “Permeation Dark” value (Dark control) is reported as 269.40 μg/0.64 cm^2/25 hrs.
As for `CC(C)[C@H](N)C(=O)N[C@@H](Cc1ccc(O)cc1)C(=O)N[C@H](C(=O)O)C(C)C` [Compound 12, Val-Tyr-Val], the “Permeation Ctrl” value turned out to be 35.26 μg/0.64 cm^2/25 hrs and the “Permeation Ctrl-TiO2” value is listed as 41.18 μg/0.64 cm^2/25 hrs. Under “350 + TiO2, 24 cps vs Dark-TiO2”, the “% Permeation (percent increase or decrease vs dark baseline, equation 1)” value was 66.64%. Moreover, the “% Permeation (percent increase or decrease vs dark baseline, equation 1)” value (350 + TiO2, 80 cps vs Dark-TiO2) is listed as 65.49%. Further, the Permeation (350 + TiO2, pulse rate 24 cps) is on record as 18.98 μg/cm^2/24 hrs. For the same molecule, the Permeation (350 + TiO2, pulse rate 80 cps) worked out at 16.45 μg/cm^2/24 hrs. The same molecule had a Permeation (350 nm LED, pulse rate 24 cps) of 22.69 μg/cm^2/24 hrs. The molecule further gave a Permeation (350 nm LED, pulse rate 80 cps) of 17.41 μg/cm^2/24 hrs. In addition, under “350 nm, 24 cps vs Dark”, the “% Permeation (percent increase or decrease vs dark baseline, equation 1)” value turned out to be 50.96%. Moreover, under “350 nm, 80 cps vs Dark”, the “% Permeation (percent increase or decrease vs dark baseline, equation 1)” value was found to be 94.09%. Besides, the “% Permeation (percent increase or decrease vs dark baseline, equation 1)” value (390 + TiO2, 24 cps vs Dark-TiO2) was found to be 11.76%. Under “390 + TiO2, 80 cps vs Dark-TiO2”, the “% Permeation (percent increase or decrease vs dark baseline, equation 1)” value turned out to be 95.88%. Moreover, the Permeation (390 + TiO2, pulse rate 24 cps) was found to be 12.73 μg/cm^2/24 hrs. Also, the Permeation (390 + TiO2, pulse rate 80 cps) is reported as 19.47 μg/cm^2/24 hrs. The molecule further had a Permeation (390 nm LED, pulse rate 24 cps) of 21.47 μg/cm^2/24 hrs. This molecule also yielded a Permeation (390 nm LED, pulse rate 80 cps) of 18.70 μg/cm^2/24 hrs. Besides, the “% Permeation (percent increase or decrease vs dark baseline, equation 1)” value (390 nm, 24 cps vs Dark) is on record as 42.85%. Besides, the “% Permeation (percent increase or decrease vs dark baseline, equation 1)” value (390 nm, 80 cps vs Dark) stood at 108.47%. For the same molecule, where the note is “405 + TiO2, 24 cps vs Dark-TiO2”, the “% Permeation (percent increase or decrease vs dark baseline, equation 1)” value is −44.16%. Also, the “% Permeation (percent increase or decrease vs dark baseline, equation 1)” value (405 + TiO2, 80 cps vs Dark-TiO2) is 101.11%. Besides, the Permeation (405 + TiO2, pulse rate 24 cps) worked out at 6.36 μg/cm^2/24 hrs. Further, the Permeation (405 + TiO2, pulse rate 80 cps) is recorded as 19.99 μg/cm^2/24 hrs. Also, where the note is “405 nm LED, pulse rate 24 cps”, the Permeation is 12.32 μg/cm^2/24 hrs. In addition, the Permeation (405 nm LED, pulse rate 80 cps) came out at 19.89 μg/cm^2/24 hrs. In addition, for the setting “405 nm, 24 cps vs Dark”, the “% Permeation (percent increase or decrease vs dark baseline, equation 1)” value is recorded as −18.03%. The “% Permeation (percent increase or decrease vs dark baseline, equation 1)” value (405 nm, 80 cps vs Dark) is on record as 121.74%. Where the note is “450 + TiO2, 24 cps vs Dark-TiO2”, the “% Permeation (percent increase or decrease vs dark baseline, equation 1)” value is recorded as −33.98%. For the same molecule, where the note is “450 + TiO2, 80 cps vs Dark-TiO2”, the “% Permeation (percent increase or decrease vs dark baseline, equation 1)” value was 48.29%. Also, the Permeation (450 + TiO2, pulse rate 24 cps) was 7.52 μg/cm^2/24 hrs. Besides, the Permeation (450 + TiO2, pulse rate 80 cps) is listed as 14.74 μg/cm^2/24 hrs. The same molecule showed a Permeation (450 nm LED, pulse rate 24 cps) of 9.51 μg/cm^2/24 hrs. For the same molecule, the Permeation (450 nm LED, pulse rate 80 cps) is listed as 17.39 μg/cm^2/24 hrs. In addition, under “450 nm, 24 cps vs Dark”, the “% Permeation (percent increase or decrease vs dark baseline, equation 1)” value was −36.73%. For the same molecule, the “% Permeation (percent increase or decrease vs dark baseline, equation 1)” value (450 nm, 80 cps vs Dark) worked out at 93.87%. The “Permeation Dark” value (Dark control) is 37.24 μg/0.64 cm^2/25 hrs. The same molecule gave a Permeation (Dark control, 24 cps series) of 15.03 μg/cm^2/24 hrs. Also, the Permeation (Dark control, 80 cps series) came out at 8.97 μg/cm^2/24 hrs. Also, the Permeation (Dark-TiO2 control (2% TiO2), 24 cps series) stood at 11.39 μg/cm^2/24 hrs. Moreover, the Permeation (Dark-TiO2 control (2% TiO2), 80 cps series) was 9.94 μg/cm^2/24 hrs. The Permeation (Day (natural daylight, not pulsed), control of the 24 cps series) is reported as 8.27 μg/cm^2/24 hrs. Besides, the Permeation (Day (natural daylight, not pulsed), control of the 80 cps series) was 11.32 μg/cm^2/24 hrs. For the same molecule, for the setting “Day vs Dark, 24 cps series”, the “% Permeation (percent increase or decrease vs dark baseline, equation 1)” value is reported as −44.98%. Under “Day vs Dark, 80 cps series”, the “% Permeation (percent increase or decrease vs dark baseline, equation 1)” value was found to be 26.20%. Under “Day-TiO2 (natural daylight, 2% TiO2, not pulsed), control of the 24 cps series”, this molecule gave a Permeation of 11.11 μg/cm^2/24 hrs. Where the note is “Day-TiO2 (natural daylight, 2% TiO2, not pulsed), control of the 80 cps series”, this molecule gave a Permeation of 13.64 μg/cm^2/24 hrs. Moreover, the “% Permeation (percent increase or decrease vs dark baseline, equation 1)” value (Day-TiO2 vs Dark-TiO2, 24 cps series) was −2.55%. The “% Permeation (percent increase or decrease vs dark baseline, equation 1)” value (Day-TiO2 vs Dark-TiO2, 80 cps series) is recorded as 37.22%. For the setting “Table 10, 405 nm, 1.7 cps”, this molecule yielded a 405/1.7 of 23.21. Besides, the 405/9.7 (Table 10, 405 nm, 9.7 cps) came out at 91.68. Also, the 405/24 (Table 10, 405 nm, 24 cps) is given as 48.83. Also, the Ctrl (Table 10 peptides) is 35.26.
